Laboratory results taken from patent US20220023257A1, “TREATMENT OF DEMENTIA-ASSOCIATED TAUOPATHIES” (Medizinische Hochschule Hannover (MHH), priority 2018, published 2022).

Tests used:
[1] = target: T1, 5-HT7R (Homo sapiens, UniProt P34969); assay: 5-HT7R-induced Tau aggregation in HEK293 Tau-BiFC cells; format: cell-based; conditions: HEK293 Tau-BiFC cells transfected with CFP-5-HT7R; maximum intensity projections
T1 construct: HA (N); expressed in transfected cells; host or cells: N1E-115 (neuroblastoma cells)
Description: Signals are normalized to DMSO-treated pcDNA-transfected cells. Data are represented as means+SDs (N=3). *** indicates statistical significance of p<0.001, n.s. not statistically different (one-way ANOVA, followed by Turkey's post hoc test). […] Representative maximum intensity projections of HEK293 Tau-BiFC cells transfected with control vector (mCerulean, blue) or 5-HT7R (CFP-5-HT7R, blue) upon the indicated treatment. […] Membranes were probed with total Tau (Abcam) and GAPDH antibody (Millipore). Signals are normalized to DMSO-treated pcDNA-transfected cells. Data are represented as means+SDs (N=3). ** indicates statistical significance of p<0.01, *** p<0.001, n.s. not statistically different (one-way ANOVA, followed by Turkey's post hoc test). […] HEK293 Tau-BiFC cells were transfected with (HA)5-HT7R and treated with the indicated concentration of Amisulpride.

[2] = test system: WT mice injected with AAV-eGFP-Tau[R406W]; assay: Tau hyperphosphorylation and recency test in WT mice after AAV-eGFP-Tau[R406W] injection into the prefrontal cortex; format: in vivo; conditions: intraperitoneal, once daily for 16 days
Description: A. Scheme showing experimental design: AAV-eGFP-Tau[R406W] was injected stereotactically into the prefrontal cortex (PFC) of WT mice. After 3 weeks of recovery time, animals were intraperitoneally injected with either Vehicle or Amisulpride once daily for 16 days. B. Staining of prefrontal cortical slices of mice after AAV injection and treatment with phospho-specific Tau antibody T205. Representative overview image and magnification are shown. C. Quantification of the mean intensities of eGFP-Tau and pTau over the whole slice and calculation of the pTau/Tau ratio. Data are shown as mean+SEM (N=5). * indicates statistical significance of p<0.05 (one-tailed unpaired t-test). D. Results of test for temporal order recognition memory (recency test). Quantification of exploration time spent with less recent (L) and recent (R) object and discrimination index. Data are presented as mean+SEM (9≥N≥7). * indicates statistical significance of p<0.05, ** p<0.01; n.s., not statistically different (paired t-test and Wilcoxon signed rank test were applied to analyze exploration time, one-way ANOVA was applied to analyze the discrimination ratio).

[3] = test system: eGFP-Tau[R406W]-infected primary cortical neurons; assay: Tau tangle formation and apoptosis in eGFP-Tau[R406W]-infected primary cortical neurons; format: cell-based, mice; conditions: 50 μM Amisulpride for three days, DIV 10-13
Text: White boxes and its corresponding magnifications show representative neurons with and without tau tangles. Arrow heads indicate cells that were counted as tangle-positive. B. Quantification of tau tangles. The number of tangle-positive neurons was counted in a confined area in 6 independent experiments and is represented as a fraction of total number of infected neurons. * indicates statistical significance of p<0.05; ** p<0.01 (N=6; total analyzed cells […], one-way ANOVA, followed by Dunnett's post hoc test). C. […] D. Representative images of DIV14 primary cortical WT neurons infected at DIV10 either with AAV constructs encoding eGFP (white) or eGFP-Tau[R406W] (green). […] Fluorescence from cleaved substrate of active caspase3/7 indicating apoptosis is shown. E. Quantification of apoptosis. Apoptotic cells showing caspase3/7 activity were counted in a confined area in 6 independent experiments and are represented as a fraction of total number of infected neurons.
A. Scheme showing experimental design. […] Neurons were analyzed at DIV 13. […] Arrowheads indicate cells that were counted as tangle-positive. […] Quantification of Tau tangles. The number of tangle-positive neurons was counted in a confined area in at least four independent experiments and is represented as a fraction of the total number of infected neurons. […] GAPDH expression was detected in a soluble fraction. […]

T1 sequence (P34969 whole entry): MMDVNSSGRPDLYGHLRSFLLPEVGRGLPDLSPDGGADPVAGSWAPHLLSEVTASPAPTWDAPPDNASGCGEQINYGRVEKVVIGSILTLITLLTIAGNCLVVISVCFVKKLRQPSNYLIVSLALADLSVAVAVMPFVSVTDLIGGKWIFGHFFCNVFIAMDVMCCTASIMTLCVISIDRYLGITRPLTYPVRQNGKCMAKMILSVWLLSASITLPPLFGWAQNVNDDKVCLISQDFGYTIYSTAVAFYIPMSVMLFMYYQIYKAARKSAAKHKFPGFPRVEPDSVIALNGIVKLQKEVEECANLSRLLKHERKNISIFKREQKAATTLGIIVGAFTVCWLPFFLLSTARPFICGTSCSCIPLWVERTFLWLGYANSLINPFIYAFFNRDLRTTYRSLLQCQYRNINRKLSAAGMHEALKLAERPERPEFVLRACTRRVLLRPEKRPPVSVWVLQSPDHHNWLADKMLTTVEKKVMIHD

CCN1CCCC1CNC(=O)c1cc(S(=O)(=O)CC)c(N)cc1OC (centres unmarked) [Amisulpride]
Tangles of Venus-Tau (VN-Tau) in 5-HT7R-transfected cells [1]: disappeared | Tau[R406W]-induced memory impairments (recency test) [2]: ameliorates | Tau[R406W]-induced Tau hyperphosphorylation (pTau/Tau ratio, T205 staining) ([2]; prefrontal cortical slices): ameliorates | 5-HT7R-induced Tau tangle formation [3]: reduced | apoptosis (caspase3/7 activity) [3]: reduced
